# Key:
# [1] = tested on: crabgrass, Brazil; experiment: Test F preemergence; assay type: in vivo, Digitaria horizontalis
# Method in brief: (§1)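 Greenhouse study; evaluation window 14–21 days post-treatment. Seedlings sprayed postemergence measured 2–18 cm, while preemergence treatments went on silt loam soil. Non-phytotoxic solvent mixture with surfactant served as vehicle; response assessed by eye, 0–100 scale.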
# [2] = tested on: fall panicum; experiment: Test F preemergence; assay type: in vivo, Panicum dichotomiflorum
# Method in brief: as §1
# [3] = tested on: Italian ryegrass; experiment: Test F preemergence; assay type: in vivo, Lolium multiflorum
# Method in brief: as §1
# [4] = tested on: foxtail, green; experiment: Test D preemergence; assay type: in vivo, Setaria viridis; settings: scale 0 to 100
# From the text: (§2) Seeds of plant species selected from bluegrass (annual bluegrass, Poa annua), blackgrass (Alopecurus myosuroides), canarygrass (littleseed canarygrass, Phalaris minor), chickweed (common chickweed, Stellaria media), galium (catchweed bedstraw, Galium aparine), bromegrass, downy (downy bromegrass, Bromus tectorum), field poppy (Papaver rhoeas), field violet (Viola arvensis), foxtail, green (green foxtail, Setaria viridis), deadnettle (henbit deadnettle, Lamium amplexicaule), ryegrass, Italian (Italian ryegrass, Lolium multiflorum), kochia (Kochia scoparia), lambsquarters (Chenopodium album), oilseed rape (Brassica napus), pigweed (redroot pigweed, Amaranthus retroflexus), chamomile (scentless chamomile, Matricaria inodora), speedwell (bird's-eye speedwell, Veronica persica), barley, spring (spring barley, Hordeum vulgare), wheat, spring (spring wheat, Triticum aestivum), buckwheat, wild (wild buckwheat, Polygonum convolvulus), mustard, wild (wild mustard, Sinapis arvensis), oat, wild (wild oat, Avena fatua), radish, wild (wild radish, Raphanus raphanistrum), windgrass (Apera spica-venti), Russian thistle (Salsola kali), barley, winter (winter barley, Hordeum vulgare), and wheat, winter (winter wheat, Triticum aestivum) were planted into a silt loam soil and treated preemergence with test chemicals formulated in a non-phytotoxic solvent mixture which included a surfactant.
# (§3) At the same time, these species were planted in pots containing Redi-Earth® planting medium (Scotts Company, 14111 Scottslawn Road, Marysville, Ohio 43041) comprising spaghnum peat moss, vermiculite, wetting agent and starter nutrients and treated with postemergence applications of the test chemicals formulated in the same manner. Plants ranged in height from 2 to 18 cm (1- to 4-leaf stage). Treated plants and controls were maintained in a controlled growth environment for 14 to 21 days after which time all species were compared to controls and visually evaluated. Plant response ratings, summarized in Table D, are based on a scale of 0 to 100 where 0 is no effect and 100 is complete control. A dash (-) response means no test result.
# [5] = tested on: pigweed, palmer; experiment: Test F preemergence; assay type: in vivo, Amaranthus palmeri
# Method in brief: as §1
# [6] = tested on: canarygrass; experiment: Test D postemergence; assay type: in vivo, Phalaris minor; settings: scale 0 to 100
# From the text: as §2, §3
# [7] = tested on: galium; experiment: Test D preemergence; assay type: in vivo, Galium aparine; settings: scale 0 to 100
# Method in brief: (§4)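 Whole-plant herbicidal activity; pre- and postemergence sprays. Soil: silt loam (pre); peat/vermiculite medium (post, 1–4 leaf). Assessment: 14–21 days, visual, 0 = no effect, 100 = complete control.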
# [8] = tested on: field violet; experiment: Test D preemergence; assay type: in vivo, Viola arvensis; settings: scale 0 to 100
# Method in brief: as §4
# [9] = tested on: corn; experiment: Test F preemergence; assay type: in vivo, Zea mays
# Method in brief: as §1
# [10] = tested on: goosegrass; experiment: Test F preemergence; assay type: in vivo, Eleusine indica
# Method in brief: as §1
# [11] = tested on: johnsongrass; experiment: Test F preemergence; assay type: in vivo, Sorghum halepense
# Method in brief: as §1
# [12] = tested on: mustard, wild; experiment: Test D postemergence; assay type: in vivo, Sinapis arvensis; settings: scale 0 to 100
# Method in brief: as §4
# [13] = tested on: chickweed; experiment: Test D preemergence; assay type: in vivo, Stellaria media; settings: scale 0 to 100
# Method in brief: as §4
# [14] = tested on: pigweed; experiment: Test D postemergence; assay type: in vivo, Amaranthus retroflexus; settings: scale 0 to 100
# From the text: as §2, §3
# [15] = Preemergence, 31 g ai/ha, scale 0 to 100
# [16] = Preemergence, 62 g ai/ha, scale 0 to 100
# [17] = Preemergence, 125 g ai/ha, scale 0 to 100
# [18] = preemergence, 8 g ai/ha, scale 0 to 100, 100 is complete control
# [19] = preemergence, 16 g ai/ha, scale 0 to 100, 100 is complete control
structure (smiles),measurement,setting,value
"CCc1cc(C(=O)NCC(F)(F)F)nn1Cc1ccnc(C(F)(F)F)c1 [Compound 78, 5-ethyl-N-(2,2,2-trifluoroethyl)-1-[[(2-trifluoromethyl)-4-pyridinyl]methyl]-1H-pyrazole-3-carboxamide]","Plant response rating, Crabgrass, Brazil",[1]; [15],100
same,"Plant response rating, Crabgrass, Brazil",[1]; [16],100
same,"Plant response rating, Crabgrass, Brazil",[1]; [17],100
same,"Plant response rating, Crabgrass, Brazil",[1]; [18],30
same,"Plant response rating, Crabgrass, Brazil",[1]; [19],70
same,"Plant response rating, Fall Panicum",[2]; [15],90
same,"Plant response rating, Fall Panicum",[2]; [16],100
same,"Plant response rating, Fall Panicum",[2]; [17],100
same,"Plant response rating, Fall Panicum",[2]; [18],40
same,"Plant response rating, Fall Panicum",[2]; [19],70
same,"Plant response rating, Italian Ryegrass",[3]; [15],5
same,"Plant response rating, Italian Ryegrass",[3]; [16],60
same,"Plant response rating, Italian Ryegrass",[3]; [17],90
same,"Plant response rating, Italian Ryegrass",[3]; [18],0
same,"Plant response rating, Italian Ryegrass",[3]; [19],0
same,"Plant response rating, Foxtail, Green",[4]; 31 g ai/ha,50
same,"Plant response rating, Foxtail, Green",[4]; 62 g ai/ha,100
same,"Plant response rating, Foxtail, Green",[4]; 125 g ai/ha,100
same,"Plant response rating, Foxtail, Green",[4]; 250 g ai/ha,100
same,"Plant response rating, Pigweed, Palmer",[5]; [15],35
same,"Plant response rating, Pigweed, Palmer",[5]; [16],100
same,"Plant response rating, Pigweed, Palmer",[5]; [17],100
same,"Plant response rating, Pigweed, Palmer",[5]; [18],20
same,"Plant response rating, Pigweed, Palmer",[5]; [19],40
same,Canarygrass plant response rating,"[6]; Postemergence, 31 g ai/ha",5
same,Canarygrass plant response rating,"[6]; Postemergence, 125 g ai/ha",15
same,Canarygrass plant response rating,"[6]; Postemergence, 250 g ai/ha",25
same,Canarygrass plant response rating,"[6]; postemergence, 62 g ai/ha",10
same,"Plant response rating, Galium",[7]; 31 g ai/ha,95
same,"Plant response rating, Galium",[7]; 62 g ai/ha,100
same,"Plant response rating, Galium",[7]; 125 g ai/ha,100
same,"Plant response rating, Galium",[7]; 250 g ai/ha,100
same,"Plant response rating, Field Violet",[8]; 31 g ai/ha,100
same,"Plant response rating, Field Violet",[8]; 62 g ai/ha,100
same,"Plant response rating, Field Violet",[8]; 125 g ai/ha,100
same,"Plant response rating, Field Violet",[8]; 250 g ai/ha,100
same,"Plant response rating, Corn",[9]; [15],20
same,"Plant response rating, Corn",[9]; [16],65
same,"Plant response rating, Corn",[9]; [17],70
same,"Plant response rating, Corn",[9]; [18],0
same,"Plant response rating, Corn",[9]; [19],10
same,"Plant response rating, Goosegrass",[10]; [15],90
same,"Plant response rating, Goosegrass",[10]; [16],90
same,"Plant response rating, Goosegrass",[10]; [17],100
same,"Plant response rating, Goosegrass",[10]; [18],5
same,"Plant response rating, Goosegrass",[10]; [19],40
same,"Plant response rating, Johnsongrass",[11]; [15],30
same,"Plant response rating, Johnsongrass",[11]; [16],95
same,"Plant response rating, Johnsongrass",[11]; [17],100
same,"Plant response rating, Johnsongrass",[11]; [18],20
same,"Plant response rating, Johnsongrass",[11]; [19],20
same,"Mustard, Wild plant response rating","[12]; Postemergence, 31 g ai/ha",40
same,"Mustard, Wild plant response rating","[12]; Postemergence, 125 g ai/ha",90
same,"Mustard, Wild plant response rating","[12]; Postemergence, 250 g ai/ha",90
same,"Mustard, Wild plant response rating","[12]; postemergence, 62 g ai/ha",70
same,"Plant response rating, Chickweed",[13]; 31 g ai/ha,100
same,"Plant response rating, Chickweed",[13]; 62 g ai/ha,100
same,"Plant response rating, Chickweed",[13]; 125 g ai/ha,100
same,"Plant response rating, Chickweed",[13]; 250 g ai/ha,100
same,Pigweed plant response rating,"[14]; Postemergence, 31 g ai/ha",70
same,Pigweed plant response rating,"[14]; Postemergence, 125 g ai/ha",80
same,Pigweed plant response rating,"[14]; Postemergence, 250 g ai/ha",85
same,Pigweed plant response rating,"[14]; postemergence, 62 g ai/ha",75

# From patent US20150105252A1, “SUBSTITUTED PYRAZOLES AS HERBICIDES” (E I DU PONT DE NEMOURS AND COMPANY, priority 2013, published 2015)
